Experiments:
SARS-CoV-2 = experiment: Antiviral activity against SARS-CoV-2 England/2/2022 assessed as reduction in viral infection; assay type: functional, organism-based; conditions: Severe acute respiratory syndrome coronavirus 2, England/2/2022
[1] = Inhibition of full length human recombinant Endoplasmic reticulum alpha-glucosidase 1 expressed in Escherichia coli using trisaccharide as substrate incubated for 60 mins
[2] = Inhibition of full length N-terminal his6-tagged mouse recombinant Endoplasmic reticulum alpha-glucosidase 2 expressed in DH10 Escherichia coli using Fluorogenic 1,4-methyl-lumbelliferon as substrate preincubated for 60 mins followed by substrate addition and measured after 30 mins
[3] = Cytotoxicity against African green monkey Vero cells assessed as reduction in cell viability incubated for 3 to 5 days by Cell titer-glo luminescent assay; assay type: toxicity, cell-based; conditions: chlorocebus sabaeus, time 3-5 day
[4] = Selectivity index, ratio of CC50 for cytotoxicity against African green monkey Vero cells to IC50 for antiviral activity against DENV New Guinea C strain infected in African green monkey Vero cells; assay type: toxicity, cell-based; conditions: read-out: Ratio CC50/IC50
Dengue virus type 2 = experiment: Antiviral activity against DENV New Guinea C strain infected in African green monkey Vero cells assessed as reduction in viral infection measured after 5 days by plaque assay; conditions: 120 h

Compound: CCCCN1C[C@H](O)[C@@H](O)[C@H](O)[C@H]1CO
- IC50 (SARS-CoV-2): 42.2 µM

Compound: O=[N+]([O-])c1cc(-n2nccn2)ccc1NCCCCCCN[C@H]1C[C@](O)(CO)[C@@H](O)[C@H](O)[C@H]1O
- IC50 [1]: 0.0479 µM
- IC50 [2]: < 0.001 µM
- CC50 [3]: 126 µM
- IC50 (SARS-CoV-2): > 100 µM
- selectivity ratio [4]: 6.9
- IC50 (Dengue virus type 2): 18.2 µM

Compound: [N-]=[N+]=Nc1ccc(NCCCCCCN[C@H]2C[C@](O)(CO)[C@@H](O)[C@H](O)[C@H]2O)c([N+](=O)[O-])c1
- IC50 [1]: 0.73 µM
- IC50 [2]: 0.0337 µM
- CC50 [3]: 122 µM
- IC50 (SARS-CoV-2): 12.3 µM
- selectivity ratio [4]: 88
- IC50 (Dengue virus type 2): 1.38 µM

Compound: COCCCCCCCCCN[C@H]1C[C@](O)(CO)[C@@H](O)[C@H](O)[C@H]1O
- IC50 [1]: 10.8 µM
- IC50 [2]: 0.49 µM
- CC50 [3]: 1070 µM
- IC50 (SARS-CoV-2): 270 µM
- IC50 (Dengue virus type 2): 75.9 µM

Compound: O=[N+]([O-])c1cc(-n2cnnn2)ccc1NCCCCCCN[C@H]1C[C@](O)(CO)[C@@H](O)[C@H](O)[C@H]1O
- IC50 [1]: 32 µM
- IC50 [2]: 1.42 µM
- CC50 [3]: 1360 µM
- IC50 (Dengue virus type 2): > 1000 µM

Compound: [N-]=[N+]=Nc1ccc(NCCOCCN[C@H]2C[C@](O)(CO)[C@@H](O)[C@H](O)[C@H]2O)c([N+](=O)[O-])c1
- IC50 [1]: 3.66 µM
- IC50 [2]: 37 µM
- CC50 [3]: 1750 µM
- IC50 (Dengue virus type 2): 293 µM

Compound: [N-]=[N+]=Nc1ccc(NCCCCN[C@H]2C[C@](O)(CO)[C@@H](O)[C@H](O)[C@H]2O)c([N+](=O)[O-])c1
- IC50 [1]: 2.42 µM
- IC50 [2]: 1.01 µM
- CC50 [3]: 1020 µM
- IC50 (SARS-CoV-2): 9.48 µM
- IC50 (Dengue virus type 2): 61.4 µM

Compound: CCCCN[C@H]1C[C@](O)(CO)[C@@H](O)[C@H](O)[C@H]1O
- IC50 [1]: 29.5 µM
- CC50 [3]: > 1000 µM
- IC50 (Dengue virus type 2): 158 µM

Compound: O=[N+]([O-])c1cc(-n2ccnn2)ccc1NCCCCCCN[C@H]1C[C@](O)(CO)[C@@H](O)[C@H](O)[C@H]1O
- IC50 [1]: 1.27 µM
- IC50 [2]: 0.0155 µM
- CC50 [3]: 1380 µM
- IC50 (SARS-CoV-2): 292 µM
- selectivity ratio [4]: 102
- IC50 (Dengue virus type 2): 13.5 µM

Compound: O=[N+]([O-])c1cc(-c2ncccn2)ccc1NCCCCCCN[C@H]1C[C@](O)(CO)[C@@H](O)[C@H](O)[C@H]1O
- IC50 [1]: 0.644 µM
- IC50 [2]: 0.0011 µM
- CC50 [3]: 762 µM
- IC50 (SARS-CoV-2): 70 µM
- IC50 (Dengue virus type 2): 105 µM

Compound: [N-]=[N+]=Nc1ccc(NCCOC(=O)NCCN[C@H]2C[C@](O)(CO)[C@@H](O)[C@H](O)[C@H]2O)c([N+](=O)[O-])c1
- IC50 [1]: 1.13 µM
- CC50 [3]: > 1000 µM
- IC50 (SARS-CoV-2): 53.7 µM
- IC50 (Dengue virus type 2): > 1000 µM

Compound: N[C@H]1C[C@](O)(CO)[C@@H](O)[C@H](O)[C@H]1O [VALIOLAMINE]
- IC50 [1]: 87.4 µM
- IC50 [2]: > 100 µM
- CC50 [3]: 831 µM
- IC50 (SARS-CoV-2): > 1000 µM
- IC50 (Dengue virus type 2): > 1000 µM

Source: ChEMBL document CHEMBL5150012, “N-Substituted Valiolamine Derivatives as Potent Inhibitors of Endoplasmic Reticulum α-Glucosidases I and II with Antiviral Activity” (J Med Chem, 2021)
